Like-named read-outs stand apart in the source and are kept apart here.
Tests used:
CDK6-CYCLIND3 = target: T1, CDK6-CYCLIND3 (Homo sapiens, UniProt Q00534); experiment: CDK inhibition assay (microfluidic LabChip, IC50 format); format: biochemical
T1 construct: purchased Carna

CDK4-CYCLIND1 = CDK4-CYCLIND1 (Homo sapiens, UniProt P11802); experiment: as above
[1] = Table 4b, upper part, read-out: CDK6 IC50
[2] = CDK4 IC50, Table 4b, upper part
[3] = Table 4b, lower part, read-out: CDK6 CyclinD3 IC50
[4] = CDK4 CyclinD1 IC50, Table 4b, lower part, a second value in parentheses for some compounds
[5] = Table 3, second value of the cell CDK4/CDK6, value of the racemate, read-out: Racemate Activity CDK6
[6] = Racemate Activity CDK4, Table 3, first value of the cell CDK4/CDK6, value of the racemate

CDK4-CYCLIND1, sequence (P11802 whole entry): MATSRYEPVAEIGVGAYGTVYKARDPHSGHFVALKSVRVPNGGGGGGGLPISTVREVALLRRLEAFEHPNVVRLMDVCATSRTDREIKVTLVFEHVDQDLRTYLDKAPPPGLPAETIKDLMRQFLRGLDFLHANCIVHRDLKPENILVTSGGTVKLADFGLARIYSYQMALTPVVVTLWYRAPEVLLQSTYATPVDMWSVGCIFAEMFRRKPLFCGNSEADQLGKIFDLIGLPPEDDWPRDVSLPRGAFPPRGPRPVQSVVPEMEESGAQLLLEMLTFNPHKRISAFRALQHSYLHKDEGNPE
CDK4-CYCLIND1, sequence (P24385 whole entry partner): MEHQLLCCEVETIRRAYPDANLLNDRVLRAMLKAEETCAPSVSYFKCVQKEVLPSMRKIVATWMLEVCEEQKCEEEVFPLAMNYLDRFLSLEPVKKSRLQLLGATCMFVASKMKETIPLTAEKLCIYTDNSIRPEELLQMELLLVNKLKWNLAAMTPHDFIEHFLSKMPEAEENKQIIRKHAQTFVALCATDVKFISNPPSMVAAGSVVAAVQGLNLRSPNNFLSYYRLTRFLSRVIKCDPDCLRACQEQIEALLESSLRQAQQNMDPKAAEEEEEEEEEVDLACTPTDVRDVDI
T1 sequence (Q00534 whole entry): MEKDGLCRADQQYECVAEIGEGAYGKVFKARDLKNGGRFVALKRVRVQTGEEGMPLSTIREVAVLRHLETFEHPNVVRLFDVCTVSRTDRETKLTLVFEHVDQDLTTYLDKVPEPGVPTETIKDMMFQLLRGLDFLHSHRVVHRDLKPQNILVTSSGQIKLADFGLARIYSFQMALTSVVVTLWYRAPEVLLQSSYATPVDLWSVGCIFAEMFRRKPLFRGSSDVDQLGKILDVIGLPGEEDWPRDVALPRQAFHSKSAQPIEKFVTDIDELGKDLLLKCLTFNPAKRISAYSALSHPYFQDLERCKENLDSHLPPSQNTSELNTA
T1 sequence (P30281 whole entry partner): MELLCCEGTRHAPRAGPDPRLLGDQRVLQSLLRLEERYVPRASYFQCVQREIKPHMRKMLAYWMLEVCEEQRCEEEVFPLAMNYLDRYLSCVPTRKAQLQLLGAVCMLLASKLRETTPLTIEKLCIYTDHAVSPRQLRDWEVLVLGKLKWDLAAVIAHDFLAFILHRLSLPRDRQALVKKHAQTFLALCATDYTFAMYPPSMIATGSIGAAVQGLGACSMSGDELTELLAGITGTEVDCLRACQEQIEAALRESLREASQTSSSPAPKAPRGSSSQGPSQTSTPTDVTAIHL

| IC50 (CDK6-CYCLIND3; [1]) [nM] | IC50 (CDK4-CYCLIND1; [2]) [nM] | IC50 (CDK6-CYCLIND3; [3]) [nM] | IC50 (CDK4-CYCLIND1; [4]) [nM] | IC50 (CDK6-CYCLIND3; [5]) [nM] | IC50 (CDK4-CYCLIND1; [6]) [nM] | Compound |
| --- | --- | --- | --- | --- | --- | --- |
| 8.36 | 3.23 | – | – | – | – | CN(C)[C@H]1CCN(C(=O)c2ccc(Nc3ncc4c(n3)N(C3CCCC3)C(=O)C3(CCNC3=O)C4)cc2)C1 (stereo partly drawn) [Example D46, 8-cyclopentyl-2-((4-((S)-3-(dimethylamino)pyrrolidine-1-carbonyl)phenyl)amino)-5,8-dihydro-7H-spiro[pyrido[2,3-d]pyrimidine-6,3′-pyrrolidine]-2′,7-dione] |
| 4.95 | 2.42 | – | – | – | – | O=C1NCCC12Cc1cnc(Nc3ccc(N4CC5(CNC5)C4)c(F)c3)nc1N(C1CCCC1)C2=O (stereo not shown) [Example D43] |
| 24.6 | 12 | – | – | – | – | CN(C)[C@H]1CCN(c2ccc(Nc3ncc4c(n3)N(C3CCCC3)C(=O)C3(CCNC3=O)C4)cc2)C1 (stereo partly drawn) [Example D44, 8-cyclopentyl-2-((4-((S)-3-(dimethylamino)pyrrolidin-1-yl)phenyl)amino)-5,8-dihydro-7H-spiro[pyrido[2,3-d]pyrimidine-6,3′-pyrrolidine]-2′,7-dione] |
| – | – | 8.52 | 4.58 | – | – | O=C1NCC[C@@]12Cc1cnc(Nc3ccc(OCCN4CCCCC4)nc3)nc1N(C1CCCC1)C2=O [Example D192, (S)-8-cyclopentyl-2-((6-(2-(piperidin-1-yl)ethoxy)pyridin-3-yl)amino)-5,8-dihydro-7H-spiro[pyrido[2,3-d]pyrimidine-6,3′-pyrrolidine]-2′,7-dione] |
| – | – | 11.2 | 6.27 | – | – | O=C1NCC[C@@]12Cc1cnc(Nc3ccc(OCCN4CCCC4)nc3)nc1N(C1CCCC1)C2=O [Example D191, (S)-8-cyclopentyl-2-((6-(2-(pyrrolidin-1-yl)ethoxy)pyridin-3-yl)amino)-5,8-dihydro-7H-spiro[pyrido[2,3-d]pyrimidine-6,3′-pyrrolidine]-2′,7-dione] |
| 13.3 | 7.29 | – | – | – | – | O=C1NCCC12Cc1cnc(Nc3ccc(N4CCC(N5CCOCC5)CC4)cn3)nc1N(C1CCCC1)C2=O (stereo not shown) [Example D39, 8-cyclopentyl-2-((5-(4-morpholinopiperidin-1-yl)pyridin-2-yl)amino)-5,8-dihydro-7H-spiro[pyrido[2,3-d]pyrimidine-6,3′-pyrrolidine]-2′,7-dione] |
| – | – | 16200 | – | – | – | O=C1NCC[C@@]12Cc1cnc(N3CC4(CNC4)C3)nc1N(C1CCCC1)C2=O [Example D198, (S)-8-cyclopentyl-2-(2,6-diazaspiro[3.3]heptan-2-yl)-5,8-dihydro-7H-spiro[pyrido[2,3-d]pyrimidine-6,3′-pyrrolidine]-2′,7-dione] |
| 5.46 | 2.68 | – | – | – | – | CN(C)[C@H]1CCN(c2ccc(Nc3ncc4c(n3)N(C3CCCC3)C(=O)C3(CCNC3=O)C4)cc2F)C1 (stereo partly drawn) [Example D45, 8-cyclopentyl-2-((4-((S)-3-(dimethylamino)pyrrolidin-1-yl)-3-fluorophenyl)amino)-5,8-dihydro-7H-spiro[pyrido[2,3-d]pyrimidine-6,3′-pyrrolidine]-2′,7-dione] |
| 5.53 | 1.95 | – | – | – | – | CN(C)[C@H]1CCN(C(=O)c2ccc(Nc3ncc4c(n3)N(C3CCCC3)C(=O)C3(CCNC3=O)C4)cc2F)C1 (stereo partly drawn) [Example D48, 8-cyclopentyl-2-((4-((S)-3-(dimethylamino)pyrrolidine-1-carbonyl)-3-fluorophenyl)amino)-5,8-dihydro-7H-spiro[pyrido[2,3-d]pyrimidine-6,3′-pyrrolidine]-2′,7-dione] |
| 4.93 | 2.12 | – | – | – | – | O=C1NCCC12Cc1cnc(Nc3ccc(N4CC5(CNC5)C4)cc3)nc1N(C1CCCC1)C2=O (stereo not shown) [Example D40, 2-((4-(2,6-diazaspiro[3.3]heptan-2-yl)phenyl)amino)-8-cyclopentyl-5,8-dihydro-7H-spiro[pyrido[2,3-d]pyrimidine-6,3′-pyrrolidine]-2′,7-dione] |
| 6.19 | 2.72 | – | – | – | – | O=C1NCCC12Cc1cnc(Nc3ccc(N4CC5(CNC5)C4)nc3)nc1N(C1CCCC1)C2=O (stereo not shown) [Example D42, 2-((6-(2,6-diazaspiro[3.3]heptan-2-yl)pyridin-3-yl)amino)-8-cyclopentyl-5,8-dihydro-7H-spiro[pyrido[2,3-d]pyrimidine-6,3′-pyrrolidine]-2′,7-dione] |
| 7.1 | 3.87 | – | – | – | – | O=C1NCCC12Cc1cnc(Nc3ccc(N4CCC(N5CCOCC5)CC4)c(F)c3)nc1N(C1CCCC1)C2=O (stereo not shown) [Example D38, 8-cyclopentyl-2-((3-fluoro-4-(4-morpholinopiperidin-1-yl)phenyl)amino)-5,8-dihydro-7H-spiro[pyrido[2,3-d]pyrimidine-6,3′-pyrrolidine]-2′,7-dione] |
| – | – | 2400 | 1250 | – | – | O=C1NCC[C@]12Cc1cnc(Nc3ccc(N4CCNCC4)c(F)c3)nc1N(C13CC(C1)C3)C2=O [Example D196, (R)-8-(bicyclo[1.1.1]pentan-1-yl)-2-((3-fluoro-4-(piperazin-1-yl)phenyl)amino)-5,8-dihydro-7H-spiro[pyrido[2,3-d]pyrimidine-6,3′-pyrrolidine]-2′,7-dione] |

Second part, the compound before the results:

| Compound | IC50 (CDK6-CYCLIND3; [1]) [nM] | IC50 (CDK4-CYCLIND1; [2]) [nM] | IC50 (CDK6-CYCLIND3; [3]) [nM] | IC50 (CDK4-CYCLIND1; [4]) [nM] | IC50 (CDK6-CYCLIND3; [5]) [nM] | IC50 (CDK4-CYCLIND1; [6]) [nM] |
| --- | --- | --- | --- | --- | --- | --- |
| Cc1cc(Nc2ncc3c(n2)N(C2CCCC2)C(=O)C2(CCNC2=O)C3)ccc1N1CCN(C(C)C)CC1 (stereo not shown) [Example D36, 8-cyclopentyl-2-((4-(4-isopropylpiperazin-1-yl)-3-methylphenyl)amino)-5,8-dihydro-7H-spiro[pyrido[2,3-d]pyrimidine-6,3′-pyrrolidine]-2′,7-dione] | 4.53 | 1.96 | – | – | – | – |
| CC(C)N1CCN(c2ccc(Nc3ncc4c(n3)N(C3CCCC3)C(=O)C3(CC(=O)N(C)C3=O)C4)cn2)CC1 (stereo not shown) [Example D26, 8-cyclopentyl-2-((6-(4-isopropylpiperazin-1-yl)pyridin-3-yl)amino)-1′-methyl-5,8-dihydro-7H-spiro[pyrido[2,3-d]pyrimidine-6,3′-pyrrolidine]-2′,5′,7-trione] | 311 | 105 | – | – | – | – |
| CC(C)N1CCN(c2ccc(Nc3ncc4c(n3)N(C3CCCC3)C(=O)C3(CCNC3=O)C4)cn2)CC1 (stereo not shown) [Example D6, 8-cyclopentyl-2-((6-(4-isopropylpiperazin-1-yl)pyridin-3-yl)amino)-5,8-dihydro-7H-spiro[pyrido[2,3-d]pyrimidine-6,3′-pyrrolidine]-2′,7-dione] | 3.94 | 1.88 | – | – | – | – |
| CC(C)N1CCN(c2ccc(Nc3ncc4c(n3)N(C3CCCC3)C(=O)C3(CCNC3=O)C4)cc2)CC1 (stereo not shown) [Example D5] | 5.67 | 2.64 | – | – | – | – |
| CN1C(=O)CC2(Cc3cnc(Nc4ccc(OCCN5CCCC5)c(F)c4)nc3N(C3CCCC3)C2=O)C1=O (stereo not shown) [Example D30, 8-cyclopentyl-2-((3-fluoro-4-(2-(pyrrolidin-1-yl)ethoxy)phenyl)amino)-1′-methyl-5,8-dihydro-7H-spiro[pyrido[2,3-d]pyrimidine-6,3′-pyrrolidine]-2′,5′,7-trione] | 1450 | 472 | – | – | – | – |
| CN(C)CCOc1ccc(Nc2ncc3c(n2)N(C2CCCC2)C(=O)C2(CC(=O)N(C)C2=O)C3)cc1 (stereo not shown) [Example D28, 8-cyclopentyl-2-((4-(2-(dimethylamino)ethoxy)phenyl)amino)-1′-methyl-5,8-dihydro-7H-spiro[pyrido[2,3-d]pyrimidine-6,3′-pyrrolidine]-2′,5′,7-trione] | 491 | 155 | – | – | – | – |
| CC(C)N1CCN(c2ccc(Nc3ncc4c(n3)N(C3CCCC3)C(=O)C3(CCNC3=O)C4)cc2F)CC1 (stereo not shown) [Example D10, 8-cyclopentyl-2-((3-fluoro-4-(4-isopropylpiperazin-1-yl)phenyl)amino)-5,8-dihydro-7H-spiro[pyrido[2,3-d]pyrimidine-6,3′-pyrrolidine]-2′,7-dione] | 3.53 | 1.5 | – | – | 3.5 | 1.5 |
| CN1C(=O)CC2(Cc3cnc(Nc4ccc(N5CCNCC5)nc4)nc3N(C3CCCC3)C2=O)C1=O (stereo not shown) [Example D24, 8-cyclopentyl-1′-methyl-2-((6-(piperazin-1-yl)pyridin-3-yl)amino)-5,8-dihydro-7H-spiro[pyrido[2,3-d]pyrimidine-6,3′-pyrrolidine]-2′,5′,7-trione] | 373 | 127 | – | – | – | – |
| O=C1NCCC12Cc1cnc(Nc3ccc(OCCN4CCCCC4)nc3)nc1N(C1CCCC1)C2=O (stereo not shown) [Example D35] | 14.4 | 7.01 | – | – | – | – |
| O=C1NCCC12Cc1cnc(Nc3ccc(OCCN4CCCCC4)cn3)nc1N(C1CCCC1)C2=O (stereo not shown) [Example D34, 8-cyclopentyl-2-((5-(2-(piperidin-1-yl)ethoxy)pyridin-2-yl)amino)-5,8-dihydro-7H-spiro[pyrido[2,3-d]pyrimidine-6,3′-pyrrolidine]-2′,7-dione] | 56.5 | 44.6 | – | – | – | – |
| COc1cc(Nc2ncc3c(n2)N(C2CCCC2)C(=O)C2(CCNC2=O)C3)ccc1N1CCN(C(C)C)CC1 (stereo not shown) [Example D37, 8-cyclopentyl-2-((4-(4-isopropylpiperazin-1-yl)-3-methoxyphenyl)amino)-5,8-dihydro-7H-spiro[pyrido[2,3-d]pyrimidine-6,3′-pyrrolidine]-2′,7-dione] | 8.12 | 3.18 | – | – | – | – |
| O=C1NCCC12Cc1cnc(Nc3ccc(N4CCNCC4)cc3)nc1N(C1CCCC1)C2=O (stereo not shown) [Example D3, 8-cyclopentyl-2-((4-(piperazin-1-yl)phenyl)amino)-5,8-dihydro-7H-spiro[pyrido[2,3-d]pyrimidine-6,3′-pyrrolidine]-2′,7-dione] | 6.03 | 2.81 | – | – | 6.03 | 2.81 |
| O=C1NCCC12Cc1cnc(Nc3ccc(N4CCNCC4)c(F)c3)nc1N(C1CCCC1)C2=O (stereo not shown) [Example D11, 8-cyclopentyl-2-((3-fluoro-4-(piperazin-1-yl)phenyl)amino)-5,8-dihydro-7H-spiro[pyrido[2,3-d]pyrimidine-6,3′-pyrrolidine]-2′,7-dione] | 4.38 | 2.09 | – | – | 3.5 | 2.1 |
| CN1CCN(c2ccc(Nc3ncc4c(n3)N(C3CCCC3)C(=O)C3(CCNC3=O)C4)cc2)CC1 (stereo not shown) [Example D4, 8-cyclopentyl-2-((4-(4-methylpiperazin-1-yl)phenyl)amino)-5,8-dihydro-7H-spiro[pyrido[2,3-d]pyrimidine-6,3′-pyrrolidine]-2′,7-dione] | 4.9 | – | – | – | – | – |

— patent US20230048132A1, “CYCLIN-DEPENDENT KINASE INHIBITORS” (SPV THERAPEUTICS INC., priority 2018, published 2023)
